Description: The measurement of the kinetic solubility was conducted as described in the experimental part.
0.5 ml of purified/de-ionized water (for instance water for chromatography) is added.
2.535 ml of purified/de-ionized water (for instance water for chromatography) is added to the solid using an adjustable volumetric pipette. The mixture is vigorously agitated at room temperature and briefly sonicated.
Then 0.785 ml of purified/de-ionized water is added.
Then 1.0 ml of purified/de-ionized water is added.

**Q.** With CN1c2c([nH]c(N)nc2=O)NC[C@@H]1CNc1ccc(C(=O)N[C@@H](CCC(=O)[O-])C(=O)[O-])cc1.[Ca+2] [calcium salt of 5-methyl-(6S)-tetrahydrofolic acid] as the compound, how does the “kinetic solubility in water” value (purified/de-ionized water, room temperature, agitated (briefly sonicated), not assay corrected) read?
**A.** smaller than 10 mg per 1 ml of water

**Q.** And the “time until a clear solution is obtained” value (weighed solid plus water, agitated at room temperature)?
**A.** No clear solution can be obtained
